Measurements: patent US4122189A, “Medicine for renal diseases” (priority 1976, dated 1978)

Assays:
mouse = test: Toxicity test (LD50); type: in vivo, ddY type mice; settings: mice, oral and intraperitoneal
Experimental: The test was carried out by the oral dose and the intraperitoneal injection of each solution in 10 ddY type male mice and 10 ddY femal mice. The results after 72 hours from the administration were observed. Probit analysis was used for statistical treatment of mortality.

[1] = tested on: patients having excessive urinary protein; settings: 150 to 1800 mg/day, with or without additional medicines
Experimental: When used in combination, the additional medicines were dosed in the amount usual for each of such additional medicines.
The amount of urine protein was measured for the clinical tests. The elimination or remarkable degree of reduction of urine protein was considered to be effective.
The non-steroid anti-inflammatory agents such as Ibuprofen, Indomethacin, Azapropazone, and steroids such as Predonizolone and antibiotics such as Cephalexin, methyl chlorophenyl iso-oxazolyl penicillin were used as the additional medicines.

[2] = tested on: hetero antikidney serum nephritis; test: Therapy for hetero antikidney serum nephritis; type: in vivo, Wister type male rats; settings: 1000 mg/kg/day oral
Experimental: Antikidney serum (rabbit) prepared in accordance with the Heymann method was intravenously injected into tail vein at a dose of 0.5 ml per 100 g of rat at one time per day.
In Table 3, the symbols for tissue observation mean the following conditions of tissues.
A: proliferation of polymorphs of glomeruli
C: thickning of the basement membrane of the glomerular capillaries
D: obliteration of the glomerular capillary loops
F: exudate in Bowman's subcapsule space
G: thickning of Bowman's capsule
H: crescent formation of glomeruli
I: proteinaeous fluid in the tubli
J: swelling of tublar epithelium
K: proliferation of interstitial tissue cells
In Table 4, the degree of lesions were rated as follows:
0: no lesion of tissue is found;
0.5: slight lesion of tissue is found;
1: clear sporadic or slight lesion of tissue is found;
3: inflamed or clear lesion of tissue is found.
The average of ratings for 5 rats in each group is shown.
The level of significance was considered as the same with those of Table 1.

Aminonucleoside nephrose = test: Therapy for Aminonucleoside nephrose (urine and blood biochemical observations); type: in vivo, SD type male rats; settings: 1000 mg/kg/day oral, 10 days
Experimental: SD type male rats (weight about 100 g) were fed in each individual room of a metabolism cage under the free water and feed supply.
The rats were classified as the normal group for eight rats, the renal disease group for eight rats and the therapy group for eight rats.
0.3% Aminoucleoside aqueous solution (hereinafter referring to as AN) was administrated by intramuscular injection at a dose of 0.3 ml per 100 g of the rat.
The administration was continued from the 1st day to the 14th day at one time per day.
The data in Tables are average value for eight rats in each group.
The difference between the renal disease group and the therapy group was significant. The symbol * means the existence of significant difference in 5% of the level of significance and the symbol (*) means the existence of significant difference in 5 to 1% of the level of significance. The symbol -- means non-significant difference.

[3] = average lesion rating 0-3 (3 inflamed or clear), normal 0, renal disease group 1.1, significance *
[4] = average lesion rating 0-3 (3 inflamed or clear), normal 0, renal disease group 1.7, significance *

C[S+](C)CCC(N)C(=O)O (stereo not shown) [Methyl methionine sulfonium chloride]
toxicity (mouse): low toxicity | effective cases (elimination or remarkable reduction of urine protein) [1]: 32 cases among 45 patients | Urine urea ([2]; 9 days, normal 6.3, renal disease group 121, non-significant): 104 mg/day | Urea nitrogen in blood ([2]; 9 days, normal 23, renal disease group 25, non-significant): 24 mg/dL | Observation of tissue F: exudate in Bowman's subcapsule space ([2]; average lesion rating 0-3 (3 inflamed or clear), normal 0, renal disease group 0, non-significant): 0 | Observation of tissue K: proliferation of interstitial tissue cells ([2]; average lesion rating 0-3 (3 inflamed or clear), normal 0, renal disease group 0.2, non-significant): 0.3 | Observation of tissue B: thrombus formation [2, 3]: 0.1 | Observation of tissue G: thickning of Bowman's capsule [2, 3]: 0 | Observation of tissue H: crescent formation of glomeruli [2, 3]: 0 | Observation of tissue C: thickning of the basement membrane of the glomerular capillaries [2, 4]: 0.4 | Observation of tissue D: obliteration of the glomerular capillary loops [2, 4]: 0.3 | Observation of tissue E: anemia ([2]; average lesion rating 0-3 (3 inflamed or clear), normal 0, renal disease group 2.2, significance *): 0.1 | Observation of tissue J: swelling of tublar epithelium ([2]; average lesion rating 0-3 (3 inflamed or clear), normal 0.5, renal disease group 1.6, non-significant): 1.3 | Observation of tissue I: proteinaeous fluid in the tubli ([2]; average lesion rating 0-3 (3 inflamed or clear), normal 0.6, renal disease group 1.8, significance (*)): 0.8 | Observation of tissue A: proliferation of polymorphs of glomeruli ([2]; average lesion rating (0 none, 0.5 slight, 1 clear sporadic or slight, 3 inflamed or clear), normal 0, renal disease group 1.4, significance (*)): 0.5 | Urine albumin (Aminonucleoside nephrose; normal 0.1, renal disease group 2.4, significance *): 1.6 g/dL | Urine protein (Aminonucleoside nephrose; normal 0.6, renal disease group 5.2, significance *): 4.0 g/dL | Serum albumin (Aminonucleoside nephrose; normal 2.60, renal disease group 0.49, significance *): 1.25 g/dL | Serum K^+ (Aminonucleoside nephrose; normal 5.1, renal disease group 5.4, non-significant): 5.6 m Eq/l | Serum total protein (Aminonucleoside nephrose; normal 6.48, renal disease group 3.60, significance *): 4.47 g/dL | Urine albumin (Aminonucleoside nephrose; normal 6.6, renal disease group 196, significance *): 106 mg/day | Urine pH (Aminonucleoside nephrose; normal 6.7, renal disease group 6.5, significance (*)): 6.2 | Urine amount (Aminonucleoside nephrose; normal 9.4, renal disease group 8.5, significance (*)): 6.9 mL/day | Serum urea nitrogen (Aminonucleoside nephrose; normal 25.2, renal disease group 44.8, significance *): 23.8 mg/dL | Urine protein (Aminonucleoside nephrose; normal 54, renal disease group 441, significance *): 294 mg/day | Serum cholesterol (Aminonucleoside nephrose; normal 84.3, renal disease group 277, significance *): 149 mg/dL | Serum Na^+ (Aminonucleoside nephrose; normal 134, renal disease group 135, non-significant): 134 m Eq/l | Urine Na (Aminonucleoside nephrose; normal 160, renal disease group 54, significance *): 109 m Eq/l | Serum glycose (Aminonucleoside nephrose; normal 169, renal disease group 135, non-significant): 138 mg/dL | Weight (Aminonucleoside nephrose; normal 180, renal disease group 196, significance *): 176 g | Urine K (Aminonucleoside nephrose; normal 230, renal disease group 204, non-significant): 210 m Eq/l
